Laboratory results reported in patent publication US6509344B1, “Indenoisoquinolines as antineoplastic agents” (The United States of America as represented by the …, priority 1998, dated 2003).
pIC50: −log10 of the molar value. Entries after “also recorded” stand apart in the source; their conditions may differ. Like-named read-outs stand apart in the source and are kept apart here. Each block holds one compound with its values, some of them ahead of it.

What was measured:
[1] = test system: human topoisomerase II; assay: Topoisomerase II-mediated DNA cleavage assay (5'-end-labeled human c-myc DNA); assay type: biochemical
[2] = target: T1, topoisomerase I (Homo sapiens, UniProt P11387); assay: Topoisomerase I-mediated DNA cleavage assay (3'-end-labeled 161 bp pBluescript SK(-) fragment); assay type: biochemical; settings: for Top 1 Cleavage: relative to the activity of 1 μM camptothecin
T1 sequence (P11387 1-765): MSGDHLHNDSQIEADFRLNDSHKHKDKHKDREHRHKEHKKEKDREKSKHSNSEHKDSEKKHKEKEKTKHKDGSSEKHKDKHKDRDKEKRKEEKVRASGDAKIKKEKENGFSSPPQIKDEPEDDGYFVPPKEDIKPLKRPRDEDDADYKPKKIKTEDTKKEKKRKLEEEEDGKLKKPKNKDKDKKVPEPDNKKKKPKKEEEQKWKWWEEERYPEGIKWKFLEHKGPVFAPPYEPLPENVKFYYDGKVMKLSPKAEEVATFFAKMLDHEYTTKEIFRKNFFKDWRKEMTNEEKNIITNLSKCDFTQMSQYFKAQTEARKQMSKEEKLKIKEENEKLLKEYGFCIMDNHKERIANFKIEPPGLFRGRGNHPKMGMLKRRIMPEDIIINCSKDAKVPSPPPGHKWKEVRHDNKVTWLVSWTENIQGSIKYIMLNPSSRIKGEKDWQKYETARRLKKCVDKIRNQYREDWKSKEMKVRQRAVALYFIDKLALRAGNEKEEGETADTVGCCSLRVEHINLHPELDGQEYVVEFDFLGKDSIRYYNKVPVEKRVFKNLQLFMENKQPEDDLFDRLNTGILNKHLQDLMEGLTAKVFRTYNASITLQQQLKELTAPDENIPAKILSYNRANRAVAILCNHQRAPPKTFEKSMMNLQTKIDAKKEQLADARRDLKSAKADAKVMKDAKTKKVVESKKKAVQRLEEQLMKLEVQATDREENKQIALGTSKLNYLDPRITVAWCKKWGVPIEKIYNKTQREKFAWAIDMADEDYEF
Outline: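 A 3′-end ³²P-labeled 161 bp Pvu II/Hind III pBluescript SK(−) fragment was incubated with topoisomerase I and drug for 15 min at 30° C, then stopped with 0.5% SDS. Cleavage products were resolved on a denaturing 16% polyacrylamide/7 M urea gel at 51° C and read by phosphorimaging.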

[3] = target: T2, topoisomerase I cleavage complexes (Homo sapiens, UniProt P11387); assay: Salt reversal of topoisomerase I cleavage complexes; assay type: biochemical; settings: increasing salt concentration
T2 sequence (P11387 1-765): T1 sequence (P11387 1-765)

[4] = test system: MDA-MB-435; assay: NCI human cancer cell line screen (COMPARE screening), Breast MDA-MB-435; assay type: cell-based; settings: MDA-MB-435, concentration causing 50% growth inhibition, read-out: Cytotoxicity (G150 in μM) Breast MDA-MB-435
Outline: (§1)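 Human cancer cell panel (NCI, ~55 lines, diverse origins) exposed to compound in vitro. Antiproliferative cytotoxicity then recorded line by line.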

[5] = test system: approximately 55 different cancer cell lines of diverse tumor origins; assay: NCI screen mean graph midpoint over all cell lines tested; assay type: cell-based, human; settings: for pIC50: average GI50 for all cell lines tested (approximately 55), values outside test range taken as 10^-8 or 10^-4 molar, read-out: MGM (mean graph midpoint)
[6] = test system: HCT-116; assay: NCI human cancer cell line screen (COMPARE screening), Colon HCT-116; assay type: cell-based; settings: HCT-116, concentration causing 50% growth inhibition, read-out: Cytotoxicity (G150 in μM) Colon HCT-116
Outline: as §1

[7] = test system: supercoiled SV40 DNA; assay: SV40 DNA unwinding assay; assay type: biochemical; settings: supercoiled DNA in the presence of topoisomerase I
Procedure: With some of the compounds (e.g. 27), the activity seemed to increase initially as the concentration was increased, but then it declined at higher concentrations. […] The unwinding assay using supercoiled DNA in the presence of topoisomerase I is a simple procedure to detect DNA intercalation.
After electrophoresis, DNA bands were stained in 10 μg/mL of ethidium bromide and visualized by transillumination with UV light (300 nm).

[8] = test system: DU-145; assay: NCI human cancer cell line screen (COMPARE screening), Prostate DU-145; assay type: cell-based; settings: DU-145, concentration causing 50% growth inhibition, read-out: Cytotoxicity (G150 in μM) Prostate DU-145
Outline: as §1

[9] = test system: HOP-62; assay: NCI human cancer cell line screen (COMPARE screening), Lung HOP-62; assay type: cell-based; settings: HOP-62, concentration causing 50% growth inhibition, read-out: Cytotoxicity (G150 in μM) Lung HOP-62
Outline: as §1

[10] = test system: OVCAR-3; assay: NCI human cancer cell line screen (COMPARE screening), Ovarian OVCAR-3; assay type: cell-based; settings: Homo sapiens; OVCAR-3; concentration causing 50% growth inhibition; read-out: Cytotoxicity (G150 in μM) Ovarian OVCAR-3
Outline: as §1

[11] = test system: UACC-62; assay: NCI human cancer cell line screen (COMPARE screening), Melanoma UACC-62; assay type: cell-based; settings: UACC-62, concentration causing 50% growth inhibition, read-out: Cytotoxicity (G150 in μM) Melanoma UACC-62
Outline: as §1

[12] = test system: SF-539; assay: NCI human cancer cell line screen (COMPARE screening), CNS SF-539; assay type: cell-based; settings: SF-539; concentration causing 50% growth inhibition; read-out: Cytotoxicity (G150 in μM) CNS SF-539
Outline: as §1

[13] = test system: SN12C; assay: NCI human cancer cell line screen (COMPARE screening), Renal SN12C; assay type: cell-based; settings: SN12C; concentration causing 50% growth inhibition; read-out: Cytotoxicity (G150 in μM) Renal SN12C
Outline: as §1

- melting point: 288 to 290 °C
SMILES: COC1=CC2=C(CN1OC)C1=C(c3cc4c(cc3C1=O)OCO4)C(CCCC(C)O)C2=O (stereo not shown) [Compound 19b, 5,6-Dihydro-6-(4-hydroxypent-1-yl)-5,11-diketo-2,3-dimethoxy-8,9-methylenedioxy-11H-indenoisoquinoline]

- melting point: 304 to 308 °C
- induction of topoisomerase II cleavage complexes [1]: no effect
- activity in the topoisomerase I cleavage assay (in words) [2]: rival the topoisomerase activity of 1
- reversal of induced cleavage sites by salt treatment [3]: reversed by salt treatment
SMILES: COc1cc2c3c(n(CCCCO)c(=O)c2cc1OC)-c1cc2c(cc1C3=O)OCO2 [Compound 19a, 5,6-Dihydro-5,11-diketo-6-(4-hydroxybut-1-yl)-2,3-dimethoxy-8,9-methylenedioxy-(11H)indeno[1,2-c]isoquinoline]
- Top 1 Cleavage [2]: + (those compounds having between 20% and 50% of the activity of 1 μM camptothecin)
- IC50 ([4]; Homo sapiens): 10 µM
- pIC50 ([5]; Homo sapiens): 5.49
- cytotoxicity (MGM) relative to lead compound 1 ([5]; comparison in words): lower MGM than the lead compound 1
- IC50 ([6]; Homo sapiens): 1.4 µM
- DNA unwinding [7]: does not appear to unwind DNA
- IC50 ([8]; Homo sapiens): 0.36 µM
- IC50 ([9]; Homo sapiens): 0.7 µM
- IC50 [10]: 3.7 µM
- IC50 ([11]; Homo sapiens): 0.99 µM

- induction of topoisomerase II cleavage complexes [1]: no effect
- reversal of induced cleavage sites by salt treatment [3]: reversed by salt treatment
SMILES: COc1cc2c3c(n(C)c(=O)c2cc1OC)-c1cc2c(cc1C3=O)OCO2 [Compound 1, reference compound]
- IC50 [12]: 41 µM
- activity in the topoisomerase I cleavage assay (in words) [2]: induce DNA cleavage in the presence of topoisomerase I; also recorded: good activity
- Top 1 Cleavage [2]: ++ (those compounds having greater than 50% of the activity of 1 μM camptothecin)
- IC50 [4]: 96 µM
- pIC50 [5]: 4.70
- IC50 [6]: 35 µM
- DNA unwinding [7]: did not produce detectable DNA unwinding; also recorded: does not appear to unwind DNA
- IC50 [8]: 37 µM
- IC50 [13]: 68 µM
- IC50 [9]: 1.3 µM
- IC50 [11]: 4.2 µM
